Reference: ChEMBL document CHEMBL1201862, “PubChem BioAssay data set” (2004)
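All cell lines were grown in 96-well plates and treated with compound for 48 hours. Here, GI50 denotes the concentration required for 50% inhibition of growth.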 Active and inactive are the calls of the source. Rule as the data show it: active = GI50 up to about 1.1 µM and inactive = higher.

Columns and labels:
Test in all cases: inhibition of tumour cell growth, NCI panel, 48 h
786-0 = test system: 786-0
A549 = test system: A549
ACHN = test system: ACHN
BT-549 = test system: BT-549
CAKI-1 = test system: CAKI-1
CCRF-CEM = test system: CCRF-CEM
COLO 205 = test system: COLO 205
EKVX = test system: EKVX
HCC 2998 = test system: HCC 2998
HCT-116 = test system: HCT-116
HCT-15 = test system: HCT-15
HOP-62 = test system: HOP-62
HT-29 = test system: HT-29
Hs-578T = test system: Hs-578T
IGROV-1 = test system: IGROV-1
K562 = test system: K562
LOX IMVI = test system: LOX IMVI
M14 = test system: M14
MCF7 = test system: MCF7
MDA-MB-231 = test system: MDA-MB-231
MDA-MB-435 = test system: MDA-MB-435
MDA-N = test system: MDA-N
MOLT-4 = test system: MOLT-4
Malme-3M = test system: Malme-3M
NCI-H226 = test system: NCI-H226
NCI-H23 = test system: NCI-H23
NCI-H460 = test system: NCI-H460
NCI-H522 = test system: NCI-H522
NCI/ADR-RES = test system: NCI/ADR-RES
OVCAR-3 = test system: OVCAR-3
OVCAR-4 = test system: OVCAR-4
OVCAR-5 = test system: OVCAR-5
OVCAR-8 = test system: OVCAR-8
PC-3 = test system: PC-3
RXF 393 = test system: RXF 393
SF-268 = test system: SF-268
SF-295 = test system: SF-295
SF-539 = test system: SF-539
SK-MEL-28 = test system: SK-MEL-28
SK-MEL-5 = test system: SK-MEL-5
SK-OV-3 = test system: SK-OV-3
SN12C = test system: SN12C
SNB-19 = test system: SNB-19
SNB-75 = test system: SNB-75
SR = test system: SR
SW-620 = test system: SW-620
T47D = test system: T47D
TK-10 = test system: TK-10
U-251 = test system: U-251
UACC-257 = test system: UACC-257
UACC-62 = test system: UACC-62
UO-31 = test system: UO-31
A498 = test system: A498
DU-145 = test system: DU-145
HOP-92 = test system: HOP-92
KM12 = test system: KM12
RPMI-8226 = test system: RPMI-8226
SK-MEL-2 = test system: SK-MEL-2

For CN(/N=C/C=N/N(C)C1=NCCCCN1)C1=NCCCCN1, the GI50 (786-0) was > 100 µM (inactive), the GI50 (A549) was > 100 µM (inactive) and the GI50 (ACHN) was > 100 µM (inactive). For the same compound, the GI50 (BT-549) was > 100 µM (inactive), the GI50 (CAKI-1) was > 100 µM (inactive) and the GI50 (CCRF-CEM) was > 100 µM (inactive). The GI50 (COLO 205) was > 100 µM (inactive), the GI50 (EKVX) was > 100 µM (inactive) and the GI50 (HCC 2998) was > 100 µM (inactive). The GI50 (HCT-116) was > 100 µM (inactive), the GI50 (HCT-15) was > 100 µM and the GI50 (HOP-62) was > 100 µM (inactive). For the same compound, the GI50 (HT-29) was > 100 µM (inactive), the GI50 (Hs-578T) was > 100 µM (inactive) and the GI50 (IGROV-1) was > 100 µM (inactive). For the same compound, the GI50 (K562) was > 100 µM (inactive), the GI50 (LOX IMVI) was > 100 µM (inactive) and the GI50 (M14) was > 100 µM (inactive). The GI50 (MCF7) was > 100 µM (inactive), the GI50 (MDA-MB-231) was > 100 µM (inactive) and the GI50 (MDA-MB-435) was > 100 µM (inactive). For the same compound, the GI50 (MDA-N) was > 100 µM (inactive), the GI50 (MOLT-4) was > 100 µM (inactive) and the GI50 (Malme-3M) was > 100 µM (inactive). For the same compound, the GI50 (NCI-H226) was > 100 µM (inactive), the GI50 (NCI-H23) was > 100 µM (inactive) and the GI50 (NCI-H460) was > 100 µM (inactive). For the same compound, the GI50 (NCI-H522) was > 100 µM (inactive), the GI50 (NCI/ADR-RES) was > 100 µM (inactive) and the GI50 (OVCAR-3) was > 100 µM (inactive). The GI50 (OVCAR-4) was > 100 µM (inactive), the GI50 (OVCAR-5) was > 100 µM (inactive) and the GI50 (OVCAR-8) was > 100 µM (inactive). The GI50 (PC-3) was > 100 µM (inactive), the GI50 (RXF 393) was > 100 µM (inactive) and the GI50 (SF-268) was > 100 µM (inactive). For the same compound, the GI50 (SF-295) was > 100 µM (inactive), the GI50 (SF-539) was > 100 µM (inactive) and the GI50 (SK-MEL-28) was > 100 µM (inactive). The GI50 (SK-MEL-5) was > 100 µM (inactive), the GI50 (SK-OV-3) was > 100 µM (inactive) and the GI50 (SN12C) was > 100 µM (inactive). The GI50 (SNB-19) was > 100 µM (inactive), the GI50 (SNB-75) was > 100 µM (inactive) and the GI50 (SR) was > 100 µM (inactive). For the same compound, the GI50 (SW-620) was > 100 µM (inactive), the GI50 (T47D) was > 100 µM (inactive) and the GI50 (TK-10) was > 100 µM (inactive). For the same compound, the GI50 (U-251) was > 100 µM (inactive), the GI50 (UACC-257) was > 100 µM (inactive) and the GI50 (UACC-62) was > 100 µM (inactive). For the same compound, the GI50 (UO-31) was > 100 µM (inactive).
O=c1c2ccccc2nc2sc(/N=C/C=C/c3ccccc3)nn12 was tested, and the GI50 (786-0) was > 100 µM (inactive), the GI50 (A498) was > 100 µM (inactive) and the GI50 (A549) was > 100 µM (inactive). The GI50 (ACHN) was > 100 µM (inactive), the GI50 (BT-549) was > 100 µM (inactive) and the GI50 (CAKI-1) was > 100 µM (inactive). The GI50 (CCRF-CEM) was 55.5 µM (inactive), the GI50 (COLO 205) was > 100 µM (inactive) and the GI50 (DU-145) was > 100 µM (inactive). For the same compound, the GI50 (EKVX) was > 100 µM (inactive), the GI50 (HCC 2998) was > 100 µM (inactive) and the GI50 (HCT-116) was > 100 µM (inactive). For the same compound, the GI50 (HCT-15) was > 100 µM, the GI50 (HOP-62) was > 100 µM (inactive) and the GI50 (HOP-92) was > 100 µM (inactive). For the same compound, the GI50 (HT-29) was > 100 µM (inactive), the GI50 (Hs-578T) was > 100 µM (inactive) and the GI50 (IGROV-1) was > 100 µM (inactive). For the same compound, the GI50 (K562) was > 100 µM (inactive), the GI50 (KM12) was > 100 µM (inactive) and the GI50 (LOX IMVI) was 56.9 µM (inactive). For the same compound, the GI50 (M14) was > 100 µM (inactive), the GI50 (MCF7) was > 100 µM (inactive) and the GI50 (MDA-MB-435) was > 100 µM (inactive). The GI50 (MDA-N) was > 100 µM (inactive), the GI50 (MOLT-4) was 44.9 µM (inactive) and the GI50 (Malme-3M) was > 100 µM (inactive). The GI50 (NCI-H226) was > 100 µM (inactive), the GI50 (NCI-H23) was > 100 µM (inactive) and the GI50 (NCI-H460) was > 100 µM (inactive). The GI50 (NCI-H522) was > 100 µM (inactive), the GI50 (NCI/ADR-RES) was > 100 µM (inactive) and the GI50 (OVCAR-3) was > 100 µM (inactive). The GI50 (OVCAR-4) was > 100 µM (inactive), the GI50 (OVCAR-5) was > 100 µM (inactive) and the GI50 (OVCAR-8) was > 100 µM (inactive). For the same compound, the GI50 (PC-3) was > 100 µM (inactive), the GI50 (RPMI-8226) was > 100 µM (inactive) and the GI50 (RXF 393) was > 100 µM (inactive). For the same compound, the GI50 (SF-268) was > 100 µM (inactive), the GI50 (SF-295) was > 100 µM (inactive) and the GI50 (SF-539) was > 100 µM (inactive). For the same compound, the GI50 (SK-MEL-28) was > 100 µM (inactive), the GI50 (SK-MEL-2) was > 100 µM (inactive) and the GI50 (SK-MEL-5) was > 100 µM (inactive). For the same compound, the GI50 (SK-OV-3) was > 100 µM (inactive), the GI50 (SN12C) was > 100 µM (inactive) and the GI50 (SNB-19) was > 100 µM (inactive). For the same compound, the GI50 (SNB-75) was > 100 µM (inactive), the GI50 (SR) was > 100 µM (inactive) and the GI50 (SW-620) was > 100 µM (inactive). For the same compound, the GI50 (T47D) was > 100 µM (inactive), the GI50 (TK-10) was > 100 µM (inactive) and the GI50 (U-251) was > 100 µM (inactive). For the same compound, the GI50 (UACC-257) was > 100 µM (inactive), the GI50 (UACC-62) was > 100 µM (inactive) and the GI50 (UO-31) was 77.4 µM (inactive).
